Source: patent publication US20240316059A1, “PEPTIDE DRUG CONJUGATES” (Oncopeptides AB, priority 2021, published 2024)
Like-named read-outs stand apart in the source and are kept apart here.

Test system: MM.1S cells
Assay: In vitro cytotoxic potency in MM.1S cell viability assay (CellTiter-Glo)
Assay type: cell-based, human
Conditions: 72 h, read-out: MM.1S IC50
Procedure: Methods: MM.1S Cells were cultivated in RPMI medium 1640 (IX) supplemented with 10 μg/μL penicillin/streptomycin, 10% heat inactivated FBS, 0.1 mM Sodium Pyruvate, 1×MEM NEAA (ThermoFisher) and 1 mM HEPES. Cells were grown to reach log phase before being exposed to the test compounds.
(§1) Test compounds (Example compounds 1 to 36, 38 to 41 and 45 to 48) and comparative compounds (bendamustine, busulfan, melphalan, chlorambucil and 4-hydroperoxy cyclophosphamide) were dissolved in 100% DMSO and added to a 384 assay plate. Additional DMSO was added to maintain the same final DMSO concentration (0.2%) in all wells. 25 μL cell suspension with a concentration of 100000 cells/mL was added to each well. The cells were cultured in a CO2 incubator at 37° C. for 72 h. Plates were equilibrated to room temperature for 30 minutes before adding 20 μL CellTiter-Glo® 2.0 (Promega) reagent to all wells. The plate was then allowed to stabilize for 20 minutes before recording the luminescence (emission filter 700 nm) in an Envision plate reader.
All cells were cultivated in RPMI medium 1640 (IX). All media was supplemented with 10 μg/μl penicillin/streptomycin, 10% heat inactivated FBS, 0.1 mM Sodium Pyruvate, 1×MEM NEAA (ThermoFisher) and 1 mM HEPES. The DERL-2 cells had higher FBS (20%) and 40 ng/mL IL-2 was added. hPBMCs were thawed and allowed to acclimatise overnight and then stimulated with 10 μg/mL PHA-M and 40 ng/mL IL-2 for 4 hours before being exposed to test compounds. All cells, except for hPBMCs, were grown to reach log phase before being exposed to the test compounds.
as §1, with “compounds” for “compounds (Example compounds 1 to 36, 38 to 41 and 45 to 48) and comparative compounds (bendamustine, busulfan, melphalan, chlorambucil and 4-hydroperoxy cyclophosphamide)”, “(Em” for “(emission”

Row | SMILES | IC50 (Homo sapiens, MM1.S) [nM] | also measured
1 | O=P1(N(CCCl)CCCl)NC(OO)CCO1 (centres unmarked) [4-hydroperoxy cyclophosphamide, reference compound] |  | IC50 (CellTiter-Glo 2.0): 7300 nM
2 | CS(=O)(=O)OCCCCOS(C)(=O)=O [Busulfan, busulfan, reference compound] |  | IC50 (Homo sapiens, MM1.S, CellTiter-Glo 2.0): 180000 nM
3 | O=C(O)CCCc1ccc(N(CCCl)CCCl)cc1 [Chlorambucil, chlorambucil, reference compound] | 6870 | 
4 | CCOC(=O)[C@@H](NC(=O)[C@@H](N)CCc1nc2cc(N(CCCl)CCCl)ccc2n1C)C(C)C [Example 3, Ethyl (2S)-2-[[(2S)-2-amino-4-[5-[bis(2-chloroethyl)amino]-1-methyl-benzimidazol-2-yl]butanoyl]amino]-3-methyl-butanoate] | 6.8 | 
5 | CCOC(=O)[C@H](CC(C)C)NC(=O)[C@@H](N)Cc1nc2cc(N(CCCl)CCCl)ccc2n1C [Example 4, Ethyl (2S)-2-[[(2S)-2-amino-3-[5-[bis(2-chloroethyl)amino]-1-methyl-benzimidazol-2-yl]propanoyl]amino]-4-methyl-pentanoate] | 6.6 | 
6 | CCOC(=O)[C@H](Cc1ccc(F)cc1)NC(=O)[C@@H](N)Cc1nc2cc(N(CCCl)CCCl)ccc2n1C [Example 5, Ethyl (2S)-2-[[(2S)-2-amino-3-[5-[bis(2-chloroethyl)amino]-1-methyl-benzimidazol-2-yl]propanoyl]amino]-3-(4-fluorophenyl)propanoate] | 22.6 | 
7 | CCOC(=O)[C@@H](NC(=O)[C@@H](N)Cc1nc2cc(N(CCCl)CCCl)ccc2n1C)C(C)C [Example 6, Ethyl (2S)-2-[[(2S)-2-amino-3-[5-[bis(2-chloroethyl)amino]-1-methyl-benzimidazol-2-yl]propanoyl]amino]-3-methyl-butanoate] | 98.7 | 
8 | CCOC(=O)[C@H](CCc1nc2cc(N(CCCl)CCCl)ccc2n1C)NC(=O)[C@@H](N)CC(C)C [Example 7, Ethyl (2S)-2-[[(2S)-2-amino-4-methyl-pentanoyl]amino]-4-[5-[bis(2-chloroethyl)amino]-1-methyl-benzimidazol-2-yl]butanoate] | 22.9 | 
9 | CCOC(=O)[C@H](CCc1nc2cc(N(CCCl)CCCl)ccc2n1C)NC(=O)[C@@H](N)Cc1ccc(F)cc1 [Example 8, Ethyl (2S)-2-[[(2S)-2-amino-3-(4-fluorophenyl)propanoyl]amino]-4-[5-[bis(2-chloroethyl)amino]-1-methyl-benzimidazol-2-yl]butanoate] | 14.4 | 
10 | CCOC(=O)[C@H](CCc1nc2cc(N(CCCl)CCCl)ccc2n1C)NC(=O)[C@@H](N)C(C)C [Example 9, Ethyl (2S)-2-[[(2S)-2-amino-3-methyl-butanoyl]amino]-4-[5-[bis(2-chloroethyl)amino]-1-methyl-benzimidazol-2-yl]butanoate] | 22.5 | 
11 | CCOC(=O)[C@H](Cc1nc2cc(N(CCCl)CCCl)ccc2n1C)NC(=O)[C@@H](N)Cc1ccc(F)cc1 [Example 11, Ethyl (2S)-2-[[(2S)-2-amino-3-(4-fluorophenyl)propanoyl]amino]-3-[5-[bis(2-chloroethyl)amino]-1-methyl-benzimidazol-2-yl]propanoate] | 14.7 | 
12 | CCOC(=O)[C@H](Cc1nc2cc(N(CCCl)CCCl)ccc2n1C)NC(=O)[C@@H](N)C(C)C [Example 12, Ethyl (2S)-2-[[(2S)-2-amino-3-methyl-butanoyl]amino]-3-[5-[bis(2-chloroethyl)amino]-1-methyl-benzimidazol-2-yl]propanoate] | 12.5 | 
13 | COC(=O)[C@H](CC(C)C)NC(=O)[C@@H](N)Cc1nc2cc(N(CCCl)CCCl)ccc2n1C [Example 14, Methyl (2S)-2-[[(2S)-2-amino-3-[5-[bis(2-chloroethyl)amino]-1-methyl-benzimidazol-2-yl]propanoyl]amino]-4-methyl-pentanoate] | 8.7 | 
14 | CC(C)C[C@H](NC(=O)[C@@H](N)Cc1nc2cc(N(CCCl)CCCl)ccc2n1C)C(=O)OC(C)C [Example 15, Isopropyl (2S)-2-[[(2S)-2-amino-3-[5-[bis(2-chloroethyl)amino]-1-methyl-benzimidazol-2-yl]propanoyl]amino]-4-methyl-pentanoate] | 9.1 | 
15 | CCOC(=O)[C@H](CCc1nc2cc(N(CCCl)CCCl)ccc2n1C)NC(=O)[C@H](CC(C)C)NC(=O)[C@@H](N)Cc1ccc(F)cc1 [Example 16, Ethyl (2S)-2-[[(2S)-2-[[(2S)-2-amino-3-(4-fluorophenyl)propanoyl]amino]-4-methyl-pentanoyl]amino]-4-[5-[bis(2-chloroethyl)amino]-1-methyl-benzimidazol-2-yl]butanoate] | 25 | 
16 | Cn1c(C[C@H](N)C(=O)O)nc2cc(N(CCCl)CCCl)ccc21 [Example 17, (2S)-2-amino-3-[5-[bis(2-chloroethyl)amino]-1-methyl-benzimidazol-2-yl]propanoic acid] | 40000 | 
17 | CC(C)[C@H](NC(=O)[C@@H](N)CCc1nc2cc(N(CCCl)CCCl)ccc2n1C)C(=O)O [Example 19, (2S)-2-[[(2S)-2-amino-4-[5-[bis(2-chloroethyl)amino]-1-methyl-benzimidazol-2-yl]butanoyl]amino]-3-methyl-butanoic acid] | 4020 | 
18 | CCOC(=O)[C@H](CCc1nc2cc(N(CCCl)CCCl)ccc2n1C)NC(=O)[C@@H](CC(C)C)NC(=O)[C@@H](N)Cc1ccc(F)cc1 [Example 21, Ethyl (2S)-2-[[(2R)-2-[[(2S)-2-amino-3-(4-fluorophenyl)propanoyl]amino]-4-methyl-pentanoyl]amino]-4-[5-[bis(2-chloroethyl)amino]-1-methyl-benzimidazol-2-yl]butanoate] | 26.6 | 
19 | CCOC(=O)[C@H](Cc1ccc(F)cc1)NC(=O)[C@H](CC(C)C)NC(=O)[C@@H](N)CCc1nc2cc(N(CCCl)CCCl)ccc2n1C [Example 22, Ethyl (2S)-2-[[(2S)-2-[[(2S)-2-amino-4-[5-[bis(2-chloroethyl)amino]-1-methyl-benzimidazol-2-yl]butanoyl]amino]-4-methyl-pentanoyl]amino]-3-(4-fluorophenyl)propanoate] | 31.3 | 
20 | CCOC(=O)[C@H](CC(C)C)NC(=O)[C@H](CC(C)C)NC(=O)[C@@H](N)CCc1nc2cc(N(CCCl)CCCl)ccc2n1C [Example 23, Ethyl (2S)-2-[[(2S)-2-[[(2S)-2-amino-4-[5-[bis(2-chloroethyl)amino]-1-methyl-benzimidazol-2-yl]butanoyl]amino]-4-methyl-pentanoyl]amino]-4-methyl-pentanoate] | 41.8 | 
21 | CC(C)C[C@H](NC(=O)[C@@H](N)CCc1nc2cc(N(CCCl)CCCl)ccc2n1C)C(=O)OCCN1CCOCC1 [Example 24, 2-Morpholinoethyl (2S)-2-[[(2S)-2-amino-4-[5-[bis(2-chloroethyl)amino]-1-methyl-benzimidazol-2-yl]butanoyl]amino]-4-methyl-pentanoate] | 156 | 
22 | CC(C)C[C@H](NC(=O)[C@@H](N)CCc1nc2cc(N(CCCl)CCCl)ccc2n1C)C(=O)OCCOC(C)C [Example 25, 2-Isopropoxyethyl (2S)-2-[[(2S)-2-amino-4-[5-[bis(2-chloroethyl)amino]-1-methyl-benzimidazol-2-yl]butanoyl]amino]-4-methyl-pentanoate] | 18.5 | 
23 | CC(C)C[C@H](NC(=O)[C@@H](N)CCc1nc2cc(N(CCCl)CCCl)ccc2n1C)C(=O)OC(C)C [Example 26, Isopropyl (2S)-2-[[(2S)-2-amino-4-[5-[bis(2-chloroethyl)amino]-1-methyl-benzimidazol-2-yl]butanoyl]amino]-4-methyl-pentanoate] | 6.8 | 
24 | COC(=O)[C@H](CC(C)C)NC(=O)[C@@H](N)CCc1nc2cc(N(CCCl)CCCl)ccc2n1C [Example 27, Methyl (2S)-2-[[(2S)-2-amino-4-[5-[bis(2-chloroethyl)amino]-1-methyl-benzimidazol-2-yl]butanoyl]amino]-4-methyl-pentanoate] | 8.2 | 
25 | CC(C)C[C@H](NC(=O)[C@@H](N)CCc1nc2cc(N(CCCl)CCCl)ccc2n1C)C(=O)OCCCN(C)C [Example 28, 3-(Dimethylamino)propyl (2S)-2-[[(2S)-2-amino-4-[5-[bis(2-chloroethyl)amino]-1-methyl-benzimidazol-2-yl]butanoyl]amino]-4-methyl-pentanoate] | 352 | 
26 | COCC(C)OC(=O)[C@H](CC(C)C)NC(=O)[C@@H](N)CCc1nc2cc(N(CCCl)CCCl)ccc2n1C (stereo partly drawn) [Example 29, (2-Methoxy-1-methyl-ethyl) (2S)-2-[[(2S)-2-amino-4-[5-[bis(2-chloroethyl)amino]-1-methyl-benzimidazol-2-yl]butanoyl]amino]-4-methyl-pentanoate] |  | IC50 (CellTiter-Glo 2.0): 1.4 nM
